Experimental data published in patent US8618305B2, “Sorafenib dimethyl sulphoxide solvate” (Ranbaxy Laboratories Limited, priority 2010, dated 2013).
Like-named read-outs stand apart in the source and are kept apart here.

Columns and labels:
[1] = Hygroscopicity of the solid; assay type: physicochemical; details: free-flowing solid

Change on heating in a vacuum oven (about 4 hours, temperature range of about 45° C. up to 110° C.): No change was observed
Temperature up to which the solid is stable towards heating (under reduced pressure): ≤ 110 °C
Hygroscopicity [1]: non-hygroscopic
Compound: CNC(=O)c1cc(Oc2ccc(NC(=O)Nc3ccc(Cl)c(C(F)(F)F)c3)cc2)ccn1 [Sorafenib dimethyl sulphoxide solvate, dimethyl sulphoxide solvate of 4-(4-{3-[-4-chloro-3-(trifluoromethyl)phenyl]ureido}phenoxy)-N^2-methylpyridine-2-carboxamide]
Change on heating in a vacuum oven (about 120° C. and about 135° C. for about 4 hours): Desolvation of sorafenib dimethyl sulphoxide solvate to sorafenib free base was observed
